ChEMBL document CHEMBL1697731, “Cheminformatics analysis of assertions mined from literature that describe drug-induced liver injury in different species” (Chem Res Toxicol, 2010)

Key:
Hepatotoxicity [1] = assay: Literature-mined compound from Fourches et al multi-species drug-induced liver injury (DILI) dataset, effect in humans; conditions: human
Hepatotoxicity [2] = assay: Literature-mined compound from Fourches et al multi-species drug-induced liver injury (DILI) dataset, effect in rodents; conditions: rodentia
Hepatotoxicity [3] = assay: Literature-mined compound from Fourches et al multi-species drug-induced liver injury (DILI) dataset, effect in non-rodents

Compound: CNC[C@H](O)c1cccc(O)c1 [PHENYLEPHRINE]
- Hepatotoxicity (Hepatotoxicity [1]): drug-induced liver injury reported
- Hepatotoxicity (Hepatotoxicity [2]): drug-induced liver injury reported
- Hepatotoxicity (Hepatotoxicity [3]): drug-induced liver injury reported

Compound: CC[C@H]1OC(=O)[C@H](C)[C@@H](O[C@H]2C[C@@](C)(OC)[C@@H](O)[C@H](C)O2)[C@H](C)[C@@H](O[C@@H]2O[C@H](C)C[C@H](N(C)C)[C@H]2O)[C@](C)(O)C[C@@H](C)CN(C)[C@H](C)[C@@H](O)[C@]1(C)O [AZITHROMYCIN]
- Hepatotoxicity (Hepatotoxicity [1]): drug-induced liver injury reported
- Hepatotoxicity (Hepatotoxicity [2]): no drug-induced liver injury reported
- Hepatotoxicity (Hepatotoxicity [3]): no drug-induced liver injury reported

Compound: O=C1Nc2ccccc2C1(c1ccc(O)cc1)c1ccc(O)cc1 [OXYPHENISATINE]
- Hepatotoxicity (Hepatotoxicity [1]): drug-induced liver injury reported
- Hepatotoxicity (Hepatotoxicity [2]): no drug-induced liver injury reported
- Hepatotoxicity (Hepatotoxicity [3]): no drug-induced liver injury reported

Compound: O=C1c2c(O)ccc(O)c2C(=O)c2c(NCCNCCO)ccc(NCCNCCO)c21 [MITOXANTRONE]
- Hepatotoxicity (Hepatotoxicity [1]): drug-induced liver injury reported
- Hepatotoxicity (Hepatotoxicity [2]): drug-induced liver injury reported
- Hepatotoxicity (Hepatotoxicity [3]): no drug-induced liver injury reported

Compound: O=C(O)CC(O)(CC(=O)O)C(=O)O [CITRIC ACID]
- Hepatotoxicity (Hepatotoxicity [1]): no drug-induced liver injury reported
- Hepatotoxicity (Hepatotoxicity [2]): drug-induced liver injury reported
- Hepatotoxicity (Hepatotoxicity [3]): no drug-induced liver injury reported

Compound: O=c1[nH]cc(F)c(=O)[nH]1 [FLUOROURACIL]
- Hepatotoxicity (Hepatotoxicity [1]): drug-induced liver injury reported
- Hepatotoxicity (Hepatotoxicity [2]): drug-induced liver injury reported
- Hepatotoxicity (Hepatotoxicity [3]): drug-induced liver injury reported

Compound: O=C(CCCCC(=O)Nc1c(I)cc(I)c(C(=O)O)c1I)Nc1c(I)cc(I)c(C(=O)O)c1I [IODIPAMIDE]
- Hepatotoxicity (Hepatotoxicity [1]): no drug-induced liver injury reported
- Hepatotoxicity (Hepatotoxicity [2]): drug-induced liver injury reported
- Hepatotoxicity (Hepatotoxicity [3]): drug-induced liver injury reported

Compound: C=CCOc1ccccc1OCC(O)CNC(C)C (stereo unspecified) [OXPRENOLOL]
- Hepatotoxicity (Hepatotoxicity [1]; Liver): no drug-induced liver injury reported
- Hepatotoxicity (Hepatotoxicity [2]; Liver): no drug-induced liver injury reported
- Hepatotoxicity (Hepatotoxicity [3]; Liver): drug-induced liver injury reported

Compound: COCc1c(C(C)C)nc(C(C)C)c(/C=C/[C@@H](O)C[C@@H](O)CC(=O)[O-])c1-c1ccc(F)cc1.[Na+] [CERIVASTATIN SODIUM]
- Hepatotoxicity (Hepatotoxicity [1]): no drug-induced liver injury reported
- Hepatotoxicity (Hepatotoxicity [2]): drug-induced liver injury reported
- Hepatotoxicity (Hepatotoxicity [3]): drug-induced liver injury reported

Compound: CC#CCC(C)[C@H](O)/C=C/[C@@H]1[C@H]2C/C(=C/CCCC(=O)O)C[C@H]2C[C@H]1O (stereo partly specified) [ILOPROST]
- Hepatotoxicity (Hepatotoxicity [1]): no drug-induced liver injury reported
- Hepatotoxicity (Hepatotoxicity [2]): drug-induced liver injury reported
- Hepatotoxicity (Hepatotoxicity [3]): no drug-induced liver injury reported

Compound: COc1cc(/C=C/C(=O)CC(=O)/C=C/c2ccc(O)c(OC)c2)ccc1O [CURCUMIN]
- Hepatotoxicity (Hepatotoxicity [1]): drug-induced liver injury reported
- Hepatotoxicity (Hepatotoxicity [2]): drug-induced liver injury reported
- Hepatotoxicity (Hepatotoxicity [3]): no drug-induced liver injury reported

Compound: OC[C@@H](O)[C@@H](O)[C@H](O)[C@@H](O)CO [SORBITOL]
- Hepatotoxicity (Hepatotoxicity [1]): drug-induced liver injury reported
- Hepatotoxicity (Hepatotoxicity [2]): drug-induced liver injury reported
- Hepatotoxicity (Hepatotoxicity [3]): no drug-induced liver injury reported

Compound: O=S(=O)([O-])Oc1ccc(C(c2ccc(OS(=O)(=O)[O-])cc2)c2ccccn2)cc1.[Na+].[Na+] [SODIUM PICOSULFATE]
- Hepatotoxicity (Hepatotoxicity [1]): drug-induced liver injury reported
- Hepatotoxicity (Hepatotoxicity [2]): no drug-induced liver injury reported
- Hepatotoxicity (Hepatotoxicity [3]): no drug-induced liver injury reported

Compound: Cc1cc2c(s1)Nc1ccccc1N=C2N1CCN(C)CC1 [OLANZAPINE]
- Hepatotoxicity (Hepatotoxicity [1]): drug-induced liver injury reported
- Hepatotoxicity (Hepatotoxicity [2]): no drug-induced liver injury reported
- Hepatotoxicity (Hepatotoxicity [3]): no drug-induced liver injury reported

Compound: COC1=CC(=O)C[C@@H](C)[C@]12Oc1c(Cl)c(OC)cc(OC)c1C2=O [GRISEOFULVIN]
- Hepatotoxicity (Hepatotoxicity [1]): drug-induced liver injury reported
- Hepatotoxicity (Hepatotoxicity [2]): drug-induced liver injury reported
- Hepatotoxicity (Hepatotoxicity [3]): no drug-induced liver injury reported

Compound: CC(C)(S)[C@@H](N)C(=O)O [PENICILLAMINE]
- Hepatotoxicity (Hepatotoxicity [1]): drug-induced liver injury reported
- Hepatotoxicity (Hepatotoxicity [2]): drug-induced liver injury reported
- Hepatotoxicity (Hepatotoxicity [3]): drug-induced liver injury reported

Compound: Nc1ccn([C@H]2CC[C@@H](CO)O2)c(=O)n1 [ZALCITABINE]
- Hepatotoxicity (Hepatotoxicity [1]; Liver): drug-induced liver injury reported
- Hepatotoxicity (Hepatotoxicity [2]; Liver): drug-induced liver injury reported
- Hepatotoxicity (Hepatotoxicity [3]; Liver): no drug-induced liver injury reported

Compound: O=c1[nH]c2ccccc2n1C1CCN(CCCC(c2ccc(F)cc2)c2ccc(F)cc2)CC1 [PIMOZIDE]
- Hepatotoxicity (Hepatotoxicity [1]): drug-induced liver injury reported
- Hepatotoxicity (Hepatotoxicity [2]): no drug-induced liver injury reported
- Hepatotoxicity (Hepatotoxicity [3]): no drug-induced liver injury reported

Compound: CSC[C@H]1C(=O)SC[C@@H](NC(=O)c2nc3ccccc3cc2O)C(=O)NCC(=O)N(C)[C@H]2SSC[C@@H](C(=O)N1C)N(C)C(=O)CNC(=O)[C@H](NC(=O)c1nc3ccccc3cc1O)CSC(=O)[C@H](CSC)N(C)C2=O [THIOCORALINE]
- Hepatotoxicity (Hepatotoxicity [1]): drug-induced liver injury reported
- Hepatotoxicity (Hepatotoxicity [2]): no drug-induced liver injury reported
- Hepatotoxicity (Hepatotoxicity [3]): no drug-induced liver injury reported

Compound: CCCCCCCCNC(C)C(O)c1ccc(SC(C)C)cc1 (stereo unspecified) [SULOCTIDIL]
- Hepatotoxicity (Hepatotoxicity [1]): drug-induced liver injury reported
- Hepatotoxicity (Hepatotoxicity [2]): no drug-induced liver injury reported
- Hepatotoxicity (Hepatotoxicity [3]): no drug-induced liver injury reported

Compound: C=Cc1c(C)c2cc3nc(c(CC(=O)NC(CC(=O)O)C(=O)O)c4nc(cc5[nH]c(cc1[nH]2)c(C)c5CC)C(C)=C4C(=O)O)C(CCC(=O)O)C3C (stereo unspecified)
- Hepatotoxicity (Hepatotoxicity [1]): no drug-induced liver injury reported
- Hepatotoxicity (Hepatotoxicity [2]): drug-induced liver injury reported
- Hepatotoxicity (Hepatotoxicity [3]): no drug-induced liver injury reported

Compound: CCCc1nc(C(C)(C)O)c(C(=O)OCc2oc(=O)oc2C)n1Cc1ccc(-c2ccccc2-c2nnn[nH]2)cc1 [OLMESARTAN MEDOXOMIL]
- Hepatotoxicity (Hepatotoxicity [1]): no drug-induced liver injury reported
- Hepatotoxicity (Hepatotoxicity [2]): drug-induced liver injury reported
- Hepatotoxicity (Hepatotoxicity [3]): no drug-induced liver injury reported

Compound: CCOC(=O)[C@H](CCc1ccccc1)N[C@@H](C)C(=O)N1C(=O)N(C)C[C@H]1C(=O)O
- Hepatotoxicity (Hepatotoxicity [1]): no drug-induced liver injury reported
- Hepatotoxicity (Hepatotoxicity [2]): drug-induced liver injury reported
- Hepatotoxicity (Hepatotoxicity [3]): no drug-induced liver injury reported

Compound: C[C@H]1C[C@@H]2[C@H]([C@@H](O)C[C@@]3(C)[C@H]2CC[C@]3(O)C(=O)CO)[C@@]2(C)C=CC(=O)C=C12 [METHYLPREDNISOLONE]
- Hepatotoxicity (Hepatotoxicity [1]): drug-induced liver injury reported
- Hepatotoxicity (Hepatotoxicity [2]): drug-induced liver injury reported
- Hepatotoxicity (Hepatotoxicity [3]): no drug-induced liver injury reported

Compound: COP(=O)(OC)C(O)C(Cl)(Cl)Cl (stereo unspecified) [TRICHLORFON]
- Hepatotoxicity (Hepatotoxicity [1]): no drug-induced liver injury reported
- Hepatotoxicity (Hepatotoxicity [2]): drug-induced liver injury reported
- Hepatotoxicity (Hepatotoxicity [3]): no drug-induced liver injury reported

Compound: CC1=C(/C=C/C(C)=C/C=C/C(C)=C/CO)C(C)(C)CCC1 [RETINOL]
- Hepatotoxicity (Hepatotoxicity [1]; Liver): drug-induced liver injury reported
- Hepatotoxicity (Hepatotoxicity [2]; Liver): drug-induced liver injury reported
- Hepatotoxicity (Hepatotoxicity [3]; Liver): drug-induced liver injury reported

Compound: CCc1cc(C(N)=S)ccn1 [ETHIONAMIDE]
- Hepatotoxicity (Hepatotoxicity [1]; Liver): drug-induced liver injury reported
- Hepatotoxicity (Hepatotoxicity [2]; Liver): drug-induced liver injury reported
- Hepatotoxicity (Hepatotoxicity [3]; Liver): no drug-induced liver injury reported

Compound: C#CC1(O)CCC2C3CCC4=CC(=O)CCC4C3C(=C)CC21CC (stereo unspecified) [IMPLANON]
- Hepatotoxicity (Hepatotoxicity [1]): drug-induced liver injury reported
- Hepatotoxicity (Hepatotoxicity [2]): no drug-induced liver injury reported
- Hepatotoxicity (Hepatotoxicity [3]): no drug-induced liver injury reported

Compound: CCCCOCN(C(=O)CCl)c1c(CC)cccc1CC [BUTACHLOR]
- Hepatotoxicity (Hepatotoxicity [1]): no drug-induced liver injury reported
- Hepatotoxicity (Hepatotoxicity [2]): drug-induced liver injury reported
- Hepatotoxicity (Hepatotoxicity [3]): no drug-induced liver injury reported

Compound: CC/C=C\C/C=C\C/C=C\C/C=C\C/C=C\CCCC(=O)O [ICOSAPENT]
- Hepatotoxicity (Hepatotoxicity [1]): drug-induced liver injury reported
- Hepatotoxicity (Hepatotoxicity [2]): drug-induced liver injury reported
- Hepatotoxicity (Hepatotoxicity [3]): no drug-induced liver injury reported

Compound: CC(C)NCC(O)c1ccc(NS(C)(=O)=O)cc1 (stereo unspecified) [SOTALOL]
- Hepatotoxicity (Hepatotoxicity [1]): no drug-induced liver injury reported
- Hepatotoxicity (Hepatotoxicity [2]): drug-induced liver injury reported
- Hepatotoxicity (Hepatotoxicity [3]): no drug-induced liver injury reported

Compound: CN1CCC(=C2c3ccccc3CCc3sccc32)CC1 [PIZOTYLINE]
- Hepatotoxicity (Hepatotoxicity [1]): drug-induced liver injury reported
- Hepatotoxicity (Hepatotoxicity [2]): no drug-induced liver injury reported
- Hepatotoxicity (Hepatotoxicity [3]): no drug-induced liver injury reported

Compound: VITAMIN E
- Hepatotoxicity (Hepatotoxicity [1]): drug-induced liver injury reported
- Hepatotoxicity (Hepatotoxicity [2]): drug-induced liver injury reported
- Hepatotoxicity (Hepatotoxicity [3]): drug-induced liver injury reported

Compound: C=C1/C(=C\C=C2/CCC[C@]3(C)[C@@H]([C@H](C)CCCC(C)(C)O)CC[C@@H]23)C[C@@H](O)C[C@@H]1O [CALCITRIOL]
- Hepatotoxicity (Hepatotoxicity [1]): drug-induced liver injury reported
- Hepatotoxicity (Hepatotoxicity [2]): drug-induced liver injury reported
- Hepatotoxicity (Hepatotoxicity [3]): no drug-induced liver injury reported

Compound: CNC[C@H](O)c1ccc(O)c(O)c1 [EPINEPHRINE]
- Hepatotoxicity (Hepatotoxicity [1]; Liver): drug-induced liver injury reported
- Hepatotoxicity (Hepatotoxicity [2]; Liver): drug-induced liver injury reported
- Hepatotoxicity (Hepatotoxicity [3]; Liver): drug-induced liver injury reported

Compound: C=C(CC)C(=O)c1ccc(OCC(=O)O)c(Cl)c1Cl [ETHACRYNIC ACID]
- Hepatotoxicity (Hepatotoxicity [1]): no drug-induced liver injury reported
- Hepatotoxicity (Hepatotoxicity [2]): drug-induced liver injury reported
- Hepatotoxicity (Hepatotoxicity [3]): drug-induced liver injury reported

Compound: Cc1cc(O)cc(C)c1Cl [CHLOROXYLENOL]
- Hepatotoxicity (Hepatotoxicity [1]): no drug-induced liver injury reported
- Hepatotoxicity (Hepatotoxicity [2]): drug-induced liver injury reported
- Hepatotoxicity (Hepatotoxicity [3]): no drug-induced liver injury reported
